We go through 2 compounds from patent US4757049A, “Process for using endogenous enkephalins and endorphins to stimulate the immune system of patients with aids” (TNI Pharmaceuticals, Inc., priority 1986, dated 1988).

For one test, the system named is L1210 tumor cells. Kind of test: Survival of BDF1 mice inoculated with 1×10^6 L1210 cells, cis-platin with and without methionine-enkephalin. It counts as in vivo, mouse.
Test [1] relates to phenylalanyl-t RNA synthetase. Particulars: Laidow et al, J.B.C. 255 (1980); cited from earlier work.

Description for L1210 tumor cells: In order to test for any synergistic effect of using an endogenous enkephalin with a known chemo-therapeutic agent, a study involving the inoculation of groups of mice with massive doses (1×10^6) of L1210 tumor cells was performed in a manner analogous to the previous examples transferred in RPMI 1640 at pH 7.

As to `N.N.[Cl][Pt][Cl]` [Cis-platin, cis-platin], the “Median Day of Death ED50” value with L1210 tumor cells (1×10^6 cells, cis-platin 2 mg/Kg, Met-enkephalin 30 mg/Kg s.c.) amounted to 10 days; in the test with L1210 tumor cells (1×10^6 cells, cis-platin 4 mg/Kg, Met-enkephalin 30 mg/Kg s.c.) it was 10 days; with L1210 tumor cells (1×10^6 cells, cis-platin 8 mg/Kg, Met-enkephalin 30 mg/Kg s.c.) it was 12 days. The “dead/tested, cumulative” value in the test with L1210 tumor cells (1×10^6 cells, cis-platin 2 mg/Kg, Met-enkephalin 30 mg/Kg s.c., day 9) was 3/20; in the test on L1210 tumor cells (1×10^6 cells, cis-platin 8 mg/Kg single dose, Met-enkephalin 30 mg/Kg s.c., day 9) it was 2/20; with L1210 tumor cells (cis-platin 2 mg/Kg, Met-enkephalin 30 mg/Kg s.c., day 10), 13/20; in the test on L1210 tumor cells (cis-platin 2 mg/Kg, Met-enkephalin 30 mg/Kg s.c., day 11), 14/20; in the test with L1210 tumor cells (cis-platin 2 mg/Kg, Met-enkephalin 30 mg/Kg s.c., day 12) it was 15/20; with L1210 tumor cells (cis-platin 2 mg/Kg, Met-enkephalin 30 mg/Kg s.c., day 13), 17/20. The “dead/tested, cumulative” value in the test on L1210 tumor cells (cis-platin 2 mg/Kg, Met-enkephalin 30 mg/Kg s.c., day 14) is reported as 19/20; in the test with L1210 tumor cells (cis-platin 4 mg/Kg, Met-enkephalin 30 mg/Kg s.c., day 11) it was 10/20; in the test with L1210 tumor cells (cis-platin 4 mg/Kg, Met-enkephalin 30 mg/Kg s.c., day 12), 15/20; with L1210 tumor cells (cis-platin 4 mg/Kg, Met-enkephalin 30 mg/Kg s.c., day 13) it was 19/20; in the test with L1210 tumor cells (cis-platin 4 mg/Kg, Met-enkephalin 30 mg/Kg s.c., day 15), 20/20; with L1210 tumor cells (cis-platin 8 mg/Kg, Met-enkephalin 30 mg/Kg s.c., day 12) it was 4/20. Also, the “dead/tested, cumulative” value was 7/20 in the test with L1210 tumor cells (cis-platin 8 mg/Kg, Met-enkephalin 30 mg/Kg s.c., day 13); 12/20 in the test with L1210 tumor cells (cis-platin 8 mg/Kg, Met-enkephalin 30 mg/Kg s.c., day 14); 16/20 in the test on L1210 tumor cells (cis-platin 8 mg/Kg, Met-enkephalin 30 mg/Kg s.c., day 15); 18/20 in the test on L1210 tumor cells (cis-platin 8 mg/Kg, Met-enkephalin 30 mg/Kg s.c., day 16); 19/20 with L1210 tumor cells (cis-platin 8 mg/Kg, day 18); 20/20 in the test with L1210 tumor cells (cis-platin 8 mg/Kg, day 20).

Take beta-endorphin: the “effect on phenylalanyl-t RNA synthetase” value in test [1] was “inhibit”.
